Source: article PMC4937426, “Dcsbis (PA2771) from Pseudomonas aeruginosa is a highly active diguanylate cyclase with unique activity regulation” (Scientific Reports, 2016)

Key:
[1] = molecular target: WspR (Pseudomonas aeruginosa, UniProt Q9HXT9); assay: coupled spectrophotometric pyrophosphate assay; assay type: biochemical; conditions: turnover only, same molar concentration as Dcsbis
[2] = molecular target: T1, Dcsbis-GGDEF; Dcsbis (173-341) (Pseudomonas aeruginosa, UniProt Q9I072); assay: coupled spectrophotometric pyrophosphate assay; assay type: biochemical; conditions: turnover only (residual activity)
T1 construct: gene PA2771

[3] = molecular target: T1, Dcsbis-GGDEF; Dcsbis (173-341); assay: X-ray crystal structure, […] Å; assay type: binding; conditions: I-site; two mutually intercalated c-di-GMP molecules bridging a GGDEF dimer; Arg251, Asp254, Arg271, Arg282
[4] = molecular target: T2, Dcsbis (PA2771), full-length (Pseudomonas aeruginosa, UniProt Q9I072); assay: coupled spectrophotometric pyrophosphate assay, Lineweaver-Burk with […] c-di-GMP; assay type: biochemical; conditions: GTP substrate; product inhibition, mainly competitive; Ki not given
T2 construct: homodimer

[5] = test system: Nc1nc2c(ncn2[C@@H]2O[C@H](COP(=O)(O)OP(=O)(O)OP(=O)(O)O)[C@@H](O)[C@H]2O)c(=O)[nH]1; assay: purified protein; conditions: without c-di-GMP; 128-512 μM GTP

T1 sequence (Q9I072 entry or part of it): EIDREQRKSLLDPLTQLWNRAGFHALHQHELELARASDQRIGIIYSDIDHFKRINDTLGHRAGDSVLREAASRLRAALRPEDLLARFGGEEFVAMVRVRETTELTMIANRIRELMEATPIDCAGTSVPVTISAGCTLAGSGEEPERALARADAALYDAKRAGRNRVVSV
T2 sequence (Q9I072 entry or part of it): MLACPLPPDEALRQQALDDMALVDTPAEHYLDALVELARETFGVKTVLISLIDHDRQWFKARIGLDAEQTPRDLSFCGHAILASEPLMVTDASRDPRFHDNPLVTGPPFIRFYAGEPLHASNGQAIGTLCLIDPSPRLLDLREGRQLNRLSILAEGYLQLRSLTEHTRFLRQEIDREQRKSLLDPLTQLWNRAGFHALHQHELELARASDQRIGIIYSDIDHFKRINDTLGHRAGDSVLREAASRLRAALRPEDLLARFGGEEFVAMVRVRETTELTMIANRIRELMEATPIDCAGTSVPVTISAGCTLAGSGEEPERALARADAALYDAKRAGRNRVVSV
Chain of WspR (Q9HXT9 entry or part of it): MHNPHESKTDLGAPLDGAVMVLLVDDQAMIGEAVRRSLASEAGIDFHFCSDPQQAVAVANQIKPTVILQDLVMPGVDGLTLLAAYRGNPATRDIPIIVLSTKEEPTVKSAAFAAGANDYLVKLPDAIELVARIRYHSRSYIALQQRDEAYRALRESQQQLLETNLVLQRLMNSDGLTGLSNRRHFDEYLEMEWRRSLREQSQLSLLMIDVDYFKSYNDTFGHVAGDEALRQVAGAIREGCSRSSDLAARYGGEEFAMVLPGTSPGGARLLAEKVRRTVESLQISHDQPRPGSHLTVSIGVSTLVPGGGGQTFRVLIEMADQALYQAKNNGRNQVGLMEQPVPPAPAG

## Nc1nc2c(ncn2[C@@H]2O[C@H](COP(=O)(O)OP(=O)(O)OP(=O)(O)O)[C@@H](O)[C@H]2O)c(=O)[nH]1 [GTP]
[1]
  coupled spectrophotometric pyrophosphate assay: DGC activity assays were performed for the three proteins at the same molar concentration
[2]
  coupled spectrophotometric pyrophosphate assay: the GGDEF domain of Dcsbis, compared with the full-length Dcsbis, exhibited only residual DGC activity

## Nc1nc2c(ncn2[C@@H]2O[C@@H]3COP(=O)(O)O[C@H]4[C@@H](O)[C@H](n5cnc6c(=O)[nH]c(N)nc65)O[C@@H]4COP(=O)(O)O[C@H]3[C@H]2O)c(=O)[nH]1 [c-di-GMP]
[3]
  X-ray crystal structure, 2.5 Å: This extra density may be explained by building in two mutually intercalated c-di-GMP molecules
[4]
  coupled spectrophotometric pyrophosphate assay, Lineweaver-Burk with 50 μM c-di-: The greatly increased Km suggests that c-di-GMP mainly binds to the active site

## Dcsbis (PA2771), full-length (Pseudomonas aeruginosa PAO1)
[5]
  Km: 88 µM
